In this assay the target is T1, HDAC6 (Homo sapiens, UniProt Q9UBN7).
T1 sequence (Q9UBN7 1-1215): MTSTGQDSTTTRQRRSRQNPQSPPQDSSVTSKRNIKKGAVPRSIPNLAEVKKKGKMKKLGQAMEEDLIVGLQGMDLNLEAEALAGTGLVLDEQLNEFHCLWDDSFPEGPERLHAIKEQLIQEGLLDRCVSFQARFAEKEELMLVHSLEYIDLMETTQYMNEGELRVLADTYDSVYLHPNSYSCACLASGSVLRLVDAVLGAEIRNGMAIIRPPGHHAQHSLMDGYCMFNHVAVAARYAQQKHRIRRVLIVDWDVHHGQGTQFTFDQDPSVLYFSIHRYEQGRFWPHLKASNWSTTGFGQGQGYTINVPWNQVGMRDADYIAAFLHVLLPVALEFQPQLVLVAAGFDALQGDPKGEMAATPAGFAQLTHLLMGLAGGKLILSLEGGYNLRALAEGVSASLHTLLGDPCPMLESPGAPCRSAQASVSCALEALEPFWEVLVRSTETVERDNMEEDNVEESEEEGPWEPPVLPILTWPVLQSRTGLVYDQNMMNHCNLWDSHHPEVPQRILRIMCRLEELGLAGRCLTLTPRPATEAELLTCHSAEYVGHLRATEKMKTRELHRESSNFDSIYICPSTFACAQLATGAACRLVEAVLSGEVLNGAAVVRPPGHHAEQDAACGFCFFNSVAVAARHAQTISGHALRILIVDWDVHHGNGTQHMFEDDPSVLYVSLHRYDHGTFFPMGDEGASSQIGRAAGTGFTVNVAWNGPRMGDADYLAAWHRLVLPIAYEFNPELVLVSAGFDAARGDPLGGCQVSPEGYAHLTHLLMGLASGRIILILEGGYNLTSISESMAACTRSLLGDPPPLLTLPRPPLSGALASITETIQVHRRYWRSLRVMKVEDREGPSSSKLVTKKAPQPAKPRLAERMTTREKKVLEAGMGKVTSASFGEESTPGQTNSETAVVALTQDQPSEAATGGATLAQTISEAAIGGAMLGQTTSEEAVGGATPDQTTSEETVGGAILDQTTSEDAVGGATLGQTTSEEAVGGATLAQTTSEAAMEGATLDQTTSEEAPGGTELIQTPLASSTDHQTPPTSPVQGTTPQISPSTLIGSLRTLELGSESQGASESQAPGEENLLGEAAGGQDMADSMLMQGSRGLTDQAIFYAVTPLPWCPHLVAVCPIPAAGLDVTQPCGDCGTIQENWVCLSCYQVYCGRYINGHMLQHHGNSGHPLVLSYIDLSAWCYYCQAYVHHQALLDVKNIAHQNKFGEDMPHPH
The experiment in a line: In vitro histone deacetylase assay: enzymatic HDAC6 electrophoretic mobility shift assay. It counts as biochemical. To be noted: full length human recombinant HDAC6, 1 nM enzyme, 2 μM peptide substrate RHKK(Ac)-NH2, 25° C.; read-out: Inhibitory Concentration (IC50) Values for Representative Compounds against HDAC6, Activity Range. In general terms: A gel shift assay detects complexes by their altered migration in electrophoresis.

In the case of `COC1CN(C(=O)N2Cc3ccc(C(=O)NO)cc3OC[C@@H]2C)C1` [(S)-N-hydroxy-4-(3-methoxyazetidine-1-carbonyl)-3-methyl-2,3,4,5-tetrahydrobenzo[f][1,4]oxazepine-8-carboxamide], the IC50 was at most 0.1 µM.
Next, `COCCN(C)C(=O)N1Cc2ccc(C(=O)NO)cc2OC[C@@H]1C`: at most 0.1 µM; `CC(C)CN1Cc2ccc(C(=O)NO)cc2OC[C@@H]1C` [(S)-N-hydroxy-4-isobutyl-3-methyl-2,3,4,5-tetrahydrobenzo[f][1,4]oxazepine-8-carboxamide]: at most 0.1 µM.
Under `C[C@H]1COc2cc(C(=O)NO)ccc2CN1S(=O)(=O)c1ccc(F)cc1` [(S)-4-((4-fluorophenyl)sulfonyl)-N-hydroxy-3-methyl-2,3,4,5-tetrahydrobenzo[f][1,4]oxazepine-8-carboxamide] stands 0.1 to 0.5 µM; under `C[C@H]1COc2cc(C(=O)NO)ccc2CN1CC1CCCC1` [(S)-4-(cyclopentylmethyl)-N-hydroxy-3-methyl-2,3,4,5-tetrahydrobenzo[f][1,4]oxazepine-8-carboxamide], at most 0.1 µM; under `C[C@H]1COc2cc(C(=O)NO)ccc2CN1CC1CC1` [(S)-4-(cyclopropylmethyl)-N-hydroxy-3-methyl-2,3,4,5-tetrahydrobenzo[f][1,4]oxazepine-8-carboxamide], at most 0.1 µM.
Next, `O=C1CN(Cc2ccccn2)Cc2cc(C(=O)NO)ccc2N1`: above 0.5 µM; `COC[C@H]1COc2cc(C(=O)NO)ccc2CN1Cc1ccc(OC)cc1` [(S)-N-hydroxy-4-(4-methoxybenzyl)-3-(methoxymethyl)-2,3,4,5-tetrahydrobenzo[f][1,4]oxazepine-8-carboxamide]: at most 0.1 µM; `COc1ccc(NC(=O)N2Cc3ccc(C(=O)NO)cc3O[C@H](c3ccccc3)C2)cc1` [(R)-N8-hydroxy-N4-(4-methoxyphenyl)-2-phenyl-2,3-dihydrobenzo[f][1,4]oxazepine-4,8(5H)-dicarboxamide]: 0.1 to 0.5 µM.
For the compound `CC[C@H]1COc2cc(C(=O)NO)ccc2CN1c1ccccc1` [(S)-3-ethyl-N-hydroxy-4-phenyl-2,3,4,5-tetrahydrobenzo[f][1,4]oxazepine-8-carboxamide], the IC50 is at most 0.1 µM.
Next, `COCCCN1Cc2ccc(C(=O)NO)cc2OC[C@@H]1C` [(S)-N-hydroxy-4-(3-methoxypropyl)-3-methyl-2,3,4,5-tetrahydrobenzo[f][1,4]oxazepine-8-carboxamide]: 0.1 to 0.5 µM; `COc1ccc(S(=O)(=O)N2Cc3ccc(C(=O)NO)cc3OC[C@H]2C)cc1`: above 0.5 µM.
As for `C[C@H]1COc2cc(C(=O)NO)ccc2CN1Cc1ccc(F)cc1` [(S)-4-(4-fluorobenzyl)-N-hydroxy-3-methyl-2,3,4,5-tetrahydrobenzo[f][1,4]oxazepine-8-carboxamide], the IC50 is at most 0.1 µM.
Under `C[C@H]1COc2cc(C(=O)NO)ccc2CN1c1ccccc1` stands at most 0.1 µM; under `COc1ccc(CN2CCNc3ccc(C(=O)NO)cc3C2)cc1`, above 0.5 µM; under `C[C@H]1COc2cc(C(=O)NO)ccc2CN1CC1CCCCC1` [(S)-4-(cyclohexylmethyl)-N-hydroxy-3-methyl-2,3,4,5-tetrahydrobenzo[f][1,4]oxazepine-8-carboxamide], at most 0.1 µM.
Under `O=C(NO)c1ccc2c(c1)OCCN(c1nc3ccccc3s1)C2` stands 0.1 to 0.5 µM; under `C[C@H]1COc2cc(C(=O)NO)ccc2CN1C1COC1` [(S)-N-hydroxy-3-methyl-4-(oxetan-3-yl)-2,3,4,5-tetrahydrobenzo[f][1,4]oxazepine-8-carboxamide], above 0.5 µM; under `C[C@H]1COc2cc(C(=O)NO)ccc2CN1c1cccnc1` [(S)-N-hydroxy-3-methyl-4-(pyridin-3-yl)-2,3,4,5-tetrahydrobenzo[f][1,4]oxazepine-8-carboxamide], at most 0.1 µM.
Under `CN1CCN(C(=O)N2CCOc3cc(C(=O)NO)ccc3C2)CC1` [N-hydroxy-4-(4-methylpiperazine-1-carbonyl)-2,3,4,5-tetrahydrobenzo[f][1,4]oxazepine-8-carboxamide] stands above 0.5 µM.

For the origin of these results see US11279681B2, “3-alkyl bicyclic [4,5,0] hydroxamic acids as HDAC inhibitors” (Valo Health, Inc., priority 2015, dated 2022).
